Experimental data as given in article PMC6274087, “New Phragmalin-Type Limonoids from Chukrasia tabularis and Their α-Glucosidase Inhibitory Activity” (Molecules, 2016).

Experiments:
α-glucosidase = assay: in vitro α-glucosidase inhibitory assay (4-nitrophenyl-α-D-glucopyranoside substrate, OD at 405 nm); details: for α-glucosidase inhibitory activity (result in words): bioactivity screening; for IC50: read-out: IC50 Value, α-glucosidase inhibitory activity, mean ± SD of triplicate experiments, acarbose as positive control

Q: Which melting point does the source give for `CC(=O)OC(C1=CC(O)OC1=O)C1(C)C(OC(C)=O)C(OC(C)=O)C2(O)C34OC(C)(CC13)OC4C1(OC(C)=O)C(OC(C)=O)C3(C)CC1(O)C21COC(=O)CC31` (stereo not drawn) [Compound 1, Chukbularisin A] here?
A: 201 to 203 °C

Q: For `CC(=O)OC1C2(C)CC34OC5(C)OC6(C7CC(=O)OC(c8ccoc8)C7(C)CCC6(O5)C35OC(=O)CC25)C(OC(=O)C(C)C)C14O` (stereo not drawn) [Compound 2, Chukbularisin B], which melting point is on record?
A: 185 to 186 °C

Q: What about the “α-glucosidase inhibitory activity (result in words)” value (“α-glucosidase inhibitory activity” below) (α-glucosidase) of the same compound?
A: showed inhibitory activities

Q: What about the IC50 (α-glucosidase) of the same compound?
A: 60 ± 8 µM

Q: With `COC(=O)CC1C2(C)CC3(O)C(O)(C2OC(C)=O)C(OC(=O)C(C)C)C24OC5(C)OC(C(OC(C)=O)C67CC62C(OC(=O)C(C)C)C(=O)OC7c2ccoc2)C4(O5)C13C` (stereo not drawn) [Compound 3, Chukbularisin C] as the compound, how does the melting point read?
A: 198 to 199 °C

Q: What about the “α-glucosidase inhibitory activity” value (α-glucosidase) of the same compound?
A: showed inhibitory activities

Q: What about the IC50 (α-glucosidase) of the same compound?
A: 40 ± 2 µM

Q: With `COC(=O)C(OC(C)=O)C1C2(C)CC3(O)C(O)(C2OC(C)=O)C2OC4(C(C)C)OC5(C(OC(C)=O)C(OC(C)=O)C67CC6(C(OC(C)=O)C(=O)OC7c6ccoc6)C25O4)C13C` (stereo not drawn) [Compound 4, Chukbularisin D] as the compound, how does the melting point read?
A: 190 to 191 °C

Q: What about the “α-glucosidase inhibitory activity” value (α-glucosidase) of the same compound?
A: showed inhibitory activities

Q: And the IC50 (α-glucosidase)?
A: 520 ± 39 µM

Q: Which melting point does the source give for `COC(=O)C(OC(C)=O)C1C2(C)CC3(O)C(OC(=O)C(C)C)(C2OC(C)=O)C2OC4(C)OC5(C(OC(C)=O)C(OC(C)=O)C67CC6(C(OC(C)=O)C(=O)OC7c6ccoc6)C25O4)C13C` (stereo not drawn) [Compound 5, Chukbularisin E] here?
A: 208 to 209 °C

Q: And the “α-glucosidase inhibitory activity” value (α-glucosidase)?
A: showed inhibitory activities

Q: What about the IC50 (α-glucosidase) of the same compound?
A: 1090 ± 40 µM

Q: Which “α-glucosidase inhibitory activity” value (α-glucosidase) does the source give for `COC(=O)C(OC(C)=O)C1C2(C)CC34OC5(C)OC6(C(O)C(OC(C)=O)C78CC7(C(OC(C)=O)C(=O)OC8c7ccoc7)C6(O5)C(OC(=O)C(C)C)C3(O)C2OC(C)=O)C14C` (stereo not drawn) [Compound 8, chubularisin K] here?
A: showed inhibitory activities

Q: And the IC50 (α-glucosidase)?
A: 200 ± 57 µM
